Laboratory results reported in PubChem BioAssay AID256 (DTP/NCI, 2004).
Toxic doses and inconclusive results are not listed. Rule for the calls: active = survival T/C of 150% or more; inactive = T/C below 125% in these data.

System: CD2F1 mice, L1210 leukemia ip, survival T/C
Assay: NCI In Vivo Anticancer Drug Screen. Data for tumor model L1210 Leukemia (intraperitoneal) in CD2F1 (CDF1) mice
Conditions: higher = longer survival
Procedure, shortened: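 Activity against a transplanted murine tumor was judged by comparing the compound group with a vehicle group. The outcome in the treated animals was divided by that in the controls.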

[1] = endpoint: mean survival time, dose: 100.0 mg/kg/injection, schedule: Q01DX001 (ip), vehicle: saline with Tween-80
[2] = endpoint: mean survival time, dose: 200.0 mg/kg/injection, schedule: Q01DX001 (ip), vehicle: saline with Tween-80
[3] = endpoint: mean survival time, dose: 400.0 mg/kg/injection, schedule: Q01DX001 (ip), vehicle: saline with Tween-80
[4] = endpoint: mean survival time, dose: 100.0 mg/kg/injection, schedule: Q04DX003 (ip), vehicle: saline
[5] = endpoint: mean survival time, dose: 25.0 mg/kg/injection, schedule: Q01DX009 (ip), vehicle: Klucel (hydroxypropylcellulose) (HPC)
[6] = endpoint: mean survival time, dose: 100.0 mg/kg/injection, schedule: Q01DX009 (ip), vehicle: Klucel (hydroxypropylcellulose) (HPC)
[7] = endpoint: mean survival time, dose: 100.0 mg/kg/injection, schedule: Q04DX003 (ip), vehicle: saline with Tween-80
[8] = endpoint: mean survival time, dose: 200.0 mg/kg/injection, schedule: Q04DX003 (ip), vehicle: saline with Tween-80
[9] = endpoint: mean survival time, dose: 400.0 mg/kg/injection, schedule: Q04DX003 (ip), vehicle: saline with Tween-80
[10] = endpoint: mean survival time, dose: 100.0 mg/kg/injection, schedule: Q01DX009 (ip), vehicle: saline with Tween-80
[11] = endpoint: mean survival time, dose: 200.0 mg/kg/injection, schedule: Q01DX009 (ip), vehicle: saline with Tween-80
[12] = endpoint: mean survival time, dose: 400.0 mg/kg/injection, schedule: Q01DX009 (ip), vehicle: saline with Tween-80

Measured: T/C

c1coc(NC2CCCCC2)n1
inactive: [1] 102 % of control | [2] 102 % of control | [3] 102 % of control

C1=CC2C3=CC1C=CC32 (configuration not stated)
inactive: endpoint: mean survival time, dose: 100.0 mg/kg/injection, schedule: Q01DX009 (ip), vehicle: acetone 92 % of control | endpoint: mean survival time, dose: 200.0 mg/kg/injection, schedule: Q01DX009 (ip), vehicle: acetone 95 % of control

CCc1ccc(NC(=O)/C=C/c2ccccc2)cc1
inactive: endpoint: mean survival time, dose: 100.0 mg/kg/injection, schedule: Q04DX002 (ip), vehicle: saline with Tween-80 93 % of control | endpoint: mean survival time, dose: 200.0 mg/kg/injection, schedule: Q04DX002 (ip), vehicle: saline with Tween-80 89 % of control | endpoint: mean survival time, dose: 400.0 mg/kg/injection, schedule: Q04DX002 (ip), vehicle: saline with Tween-80 104 % of control

COC(=O)/C=C(/Nc1ccccc1C(=O)O)C(=O)OC
inactive: [4] 89 % of control | endpoint: mean survival time, dose: 200.0 mg/kg/injection, schedule: Q04DX003 (ip), vehicle: saline 101 % of control | endpoint: mean survival time, dose: 400.0 mg/kg/injection, schedule: Q04DX003 (ip), vehicle: saline 90 % of control

CCCCCCCCCCCCCCCCCC[n+]1cccc(C(=O)N2CCOCC2)c1
inactive: [5] 90 % of control | endpoint: mean survival time, dose: 50.0 mg/kg/injection, schedule: Q01DX009 (ip), vehicle: Klucel (hydroxypropylcellulose) (HPC) 95 % of control | [6] 92 % of control

CCCCCOC(=S)S.[Pt]
inactive: endpoint: mean survival time, dose: 6.25 mg/kg/injection, schedule: Q04DX003 (ip), vehicle: saline with Tween-80 101 % of control | endpoint: mean survival time, dose: 12.5 mg/kg/injection, schedule: Q04DX003 (ip), vehicle: saline with Tween-80 104 % of control | endpoint: mean survival time, dose: 25.0 mg/kg/injection, schedule: Q04DX003 (ip), vehicle: saline with Tween-80 108 % of control | endpoint: mean survival time, dose: 50.0 mg/kg/injection, schedule: Q04DX003 (ip), vehicle: saline with Tween-80 101 % of control | [7] 104 % of control

CC1(C)CCC2(C)CC(C(=O)O)C(=O)C=C2C1 (configuration not stated)
inactive: [1] 100 % of control | [2] 92 % of control | [3] 96 % of control

COc1ccc(NS(=O)(=O)c2ccc(NC(C)=O)cc2)cc1
inactive: endpoint: mean survival time, dose: 100.0 mg/kg/injection, schedule: Q01DX001 (ip), vehicle: Klucel (hydroxypropylcellulose) (HPC) 104 % of control | [6] 97 % of control | endpoint: mean survival time, dose: 200.0 mg/kg/injection, schedule: Q01DX001 (ip), vehicle: Klucel (hydroxypropylcellulose) (HPC) 96 % of control | endpoint: mean survival time, dose: 200.0 mg/kg/injection, schedule: Q01DX009 (ip), vehicle: Klucel (hydroxypropylcellulose) (HPC) 105 % of control | endpoint: mean survival time, dose: 400.0 mg/kg/injection, schedule: Q01DX001 (ip), vehicle: Klucel (hydroxypropylcellulose) (HPC) 98 % of control | endpoint: mean survival time, dose: 400.0 mg/kg/injection, schedule: Q01DX009 (ip), vehicle: Klucel (hydroxypropylcellulose) (HPC) 96 % of control

Cc1c(Cl)cccc1NC(=O)c1ccc([N+](=O)[O-])cc1
inactive: [7] 95 % of control | [8] 101 % of control | [9] 86 % of control

CC(=O)Oc1c(Cl)cc(Cl)c(Cl)c1[N+](=O)[O-]
inactive: [1] 93 % of control | [2] 93 % of control

CC(SC(C)c1ccccc1)c1ccccc1 (configuration not stated)
inactive: [10] 98 % of control | [7] 90 % of control | [11] 98 % of control | [8] 93 % of control | [12] 102 % of control | [9] 90 % of control

C[C@@H]1CC[C@]2(C)CC[C@]3(C)C(=CC[C@@H]4[C@@]5(C)CC[C@@H](OC(=O)c6ccc(O)cc6)C(C)(C)[C@@H]5C[C@H](O)[C@]43C)[C@@H]2[C@H]1C(=O)O
inactive: endpoint: median survival time, dose: 0.06 mg/kg/injection, schedule: Q01DX009 (ip), vehicle: saline with Tween-80 103 % of control | endpoint: median survival time, dose: 0.12 mg/kg/injection, schedule: Q01DX009 (ip), vehicle: saline with Tween-80 111 % of control | endpoint: median survival time, dose: 0.25 mg/kg/injection, schedule: Q01DX009 (ip), vehicle: saline with Tween-80 114 % of control | endpoint: median survival time, dose: 0.5 mg/kg/injection, schedule: Q01DX009 (ip), vehicle: saline with Tween-80 123 % of control | endpoint: median survival time, dose: 1.0 mg/kg/injection, schedule: Q01DX009 (ip), vehicle: saline with Tween-80 107 % of control

Cc1cn(C2OC(CO)C(O)C2Cl)c(=O)nc1N (configuration not stated)
inactive: endpoint: median survival time, dose: 12.5 mg/kg/injection, schedule: Q01DX005 (ip), vehicle: saline 101 % of control | endpoint: median survival time, dose: 25.0 mg/kg/injection, schedule: Q01DX005 (ip), vehicle: saline 104 % of control | endpoint: median survival time, dose: 50.0 mg/kg/injection, schedule: Q01DX005 (ip), vehicle: saline 104 % of control | endpoint: median survival time, dose: 100.0 mg/kg/injection, schedule: Q01DX005 (ip), vehicle: saline 101 % of control | endpoint: median survival time, dose: 200.0 mg/kg/injection, schedule: Q01DX005 (ip), vehicle: saline 96 % of control

Nc1nc(Cl)c2nnn(C3CC(O)C(CO)C3)c2n1 (configuration not stated)
inactive: endpoint: mean survival time, dose: 6.25 mg/kg/injection, schedule: Q01DX009 (ip), vehicle: Klucel (hydroxypropylcellulose) (HPC) 117 % of control | endpoint: mean survival time, dose: 12.5 mg/kg/injection, schedule: Q01DX009 (ip), vehicle: Klucel (hydroxypropylcellulose) (HPC) 106 % of control | [5] 117 % of control

C[N+](C)(C)CCOC(=O)c1cc(CBr)cc(CBr)c1
inactive: [4] 103 % of control

CCCCCCCCCCCCOC(=O)C[n+]1cccc(C(=O)Nc2ccc(Cl)cc2)c1
inactive: endpoint: mean survival time, dose: 25.0 mg/kg/injection, schedule: Q01DX009 (ip), vehicle: saline with Tween-80 101 % of control | endpoint: mean survival time, dose: 50.0 mg/kg/injection, schedule: Q01DX009 (ip), vehicle: saline with Tween-80 96 % of control | [7] 103 % of control

O=C(Nc1ccc(C2=NCCN2)cc1)c1ccc(C(=O)Nc2ccc(C3=NCCN3)cc2)cc1
inactive: endpoint: mean survival time, dose: 1.25 mg/kg/injection, schedule: Q01DX008 (iv), vehicle: other 103 % of control | endpoint: mean survival time, dose: 2.5 mg/kg/injection, schedule: Q01DX008 (iv), vehicle: other 103 % of control | endpoint: mean survival time, dose: 5.0 mg/kg/injection, schedule: Q01DX008 (iv), vehicle: other 108 % of control | endpoint: mean survival time, dose: 50.0 mg/kg/injection, schedule: Q04DX003 (ip), vehicle: water 112 % of control | endpoint: mean survival time, dose: 100.0 mg/kg/injection, schedule: Q04DX003 (ip), vehicle: water 118 % of control
active: endpoint: mean survival time, dose: 100.0 mg/kg/injection, schedule: Q01DX007 (ip), vehicle: water 153 % of control | endpoint: mean survival time, dose: 200.0 mg/kg/injection, schedule: Q01DX007 (ip), vehicle: water 170 % of control | endpoint: mean survival time, dose: 200.0 mg/kg/injection, schedule: Q01DX009 (ip), vehicle: water 186 % of control

CC1CCC(=O)O1 (configuration not stated)
inactive: endpoint: mean survival time, dose: 100.0 mg/kg/injection, schedule: Q04DX002 (ip), vehicle: saline 98 % of control | endpoint: mean survival time, dose: 200.0 mg/kg/injection, schedule: Q04DX002 (ip), vehicle: saline 98 % of control | endpoint: mean survival time, dose: 400.0 mg/kg/injection, schedule: Q04DX002 (ip), vehicle: saline 98 % of control

NC(=O)CC(N)C(=O)O (configuration not stated)
inactive: endpoint: mean survival time, dose: 50.0 mg/kg/injection, schedule: Q01DX009 (ip), vehicle: other 102 % of control | endpoint: mean survival time, dose: 50.0 mg/kg/injection, schedule: Q01DX009 (ip), vehicle: saline 97 % of control | endpoint: mean survival time, dose: 100.0 mg/kg/injection, schedule: Q01DX009 (ip), vehicle: other 98 % of control | endpoint: mean survival time, dose: 100.0 mg/kg/injection, schedule: Q01DX009 (ip), vehicle: saline 101 % of control | endpoint: mean survival time, dose: 200.0 mg/kg/injection, schedule: Q01DX009 (ip), vehicle: other 98 % of control | endpoint: mean survival time, dose: 200.0 mg/kg/injection, schedule: Q01DX009 (ip), vehicle: saline 103 % of control | endpoint: mean survival time, dose: 400.0 mg/kg/injection, schedule: Q01DX009 (ip), vehicle: other 104 % of control | endpoint: mean survival time, dose: 400.0 mg/kg/injection, schedule: Q01DX009 (ip), vehicle: saline 103 % of control | endpoint: mean survival time, dose: 800.0 mg/kg/injection, schedule: Q01DX009 (ip), vehicle: other 104 % of control | endpoint: mean survival time, dose: 800.0 mg/kg/injection, schedule: Q01DX009 (ip), vehicle: saline 100 % of control | endpoint: mean survival time, dose: 1600.0 mg/kg/injection, schedule: Q01DX009 (ip), vehicle: other 98 % of control | endpoint: mean survival time, dose: 1600.0 mg/kg/injection, schedule: Q01DX009 (ip), vehicle: saline 101 % of control

O=C(O)C(Br)C(Br)c1ccccc1 (configuration not stated)
inactive: [10] 92 % of control | [11] 93 % of control | [12] 93 % of control
